Measurements published in patent US20140073639A1 (priority 2012, published 2014).
In brackets after ≈: the same amount, converted by molar mass.

Columns and labels:
S. MRSA = test: microbe, parasite or virus in culture; type: cell-based; conditions: for inhibition at 10 µM / inhibition at 30 µM / inhibition at 3 µM: Staphylococcus aureus, MRSA; for inhibition at 10 µM: read-out: S. MRSA 10 μM (growth inhibition); for inhibition at 30 µM: read-out: S. MRSA 30 μM (growth inhibition); for inhibition at 3 µM: read-out: S. MRSA 3 μM (growth inhibition)
B. Anthracis = test: microbe, parasite or virus in culture; type: cell-based; conditions: for inhibition at 10 µM / inhibition at 30 µM / inhibition at 3 µM: Bacillus anthracis; for inhibition at 10 µM: read-out: B. Anthracis 10 μM (growth inhibition); for inhibition at 30 µM: read-out: B. Anthracis 30 μM (growth inhibition); for inhibition at 3 µM: read-out: B. Anthracis 3 μM (growth inhibition)
[1] = type: cell-based

SMILES | inhibition at 10 µM (S. MRSA; 10 μM) | inhibition at 30 µM (S. MRSA; 30 μM) | inhibition at 10 µM (B. Anthracis; 10 μM) | inhibition at 30 µM (B. Anthracis; 30 μM) | MIC, 25% Serum [1] | MIC, No Serum [1] | other results
O=C1Nc2ccc(Br)cc2/C1=C1/NC(=S)N(C(Cc2ccccc2)C(=O)O)C1=O (stereo not drawn) [Cmpd 31] | -8% | -2.22% | 2.5% | 88% | >250 µM | 250 µM (≈ 118 µg/mL) | –
O=C1Nc2cc(Cl)c(Br)cc2/C1=C1/NC(=S)N(C(Cc2ccccc2)C(=O)O)C1=O (stereo not drawn) [Cmpd 32] | -19.4% | 93.8% | 40.2% | 98.8% | >250 µM | – | inhibition at 3 µM (S. MRSA): -11.9%; inhibition at 3 µM (B. Anthracis; 3 μM): 11.3%
O=C(O)C(Cc1ccccc1)N1C(=O)/C(=C\c2ccc(-c3ccc(Cl)cc3)o2)NC1=S (stereo not drawn) [Cmpd 38] | -16.9% | 86.6% | 68.9% | 99.7% | >250 µM | 62.5 µM (≈ 28.3 µg/mL) | inhibition at 3 µM (S. MRSA): -13.5%; inhibition at 3 µM (B. Anthracis; 3 μM): 4.99%
O=C(O)C(Cc1ccccc1)N1C(=O)/C(=C\c2ccc(-c3ccc(Cl)c(Cl)c3)o2)NC1=S (stereo not drawn) [Cmpd 42] | 98.7% | 94.5% | 99.5% | 96.7% | – | – | inhibition at 3 µM (B. Anthracis; 3 μM): 96.2%
O=C(O)C(Cc1ccccc1)N1C(=O)/C(=C\c2ccc(-c3ccc(OC(F)(F)F)cc3)o2)NC1=S (stereo not drawn) [Cmpd 43] | -6.26% | 95.2% | 96.7% | 96.6% | – | – | inhibition at 3 µM (S. MRSA): -1.32%; inhibition at 3 µM (B. Anthracis; 3 μM): 8.01%
CCC(C(=O)O)N1C(=O)/C(=C\c2ccc(-c3ccc(Cl)c(Cl)c3)o2)NC1=S (stereo not drawn) [Cmpd 44] | 4.53% | 92.9% | 97.2% | 94% | >250 µM | 250 µM (≈ 106 µg/mL) | inhibition at 3 µM (S. MRSA): -2.47%; inhibition at 3 µM (B. Anthracis; 3 μM): 4.13%
O=C(O)C(Cc1ccccc1)N1C(=O)/C(=C\c2ccc(-c3ccc(I)cc3)o2)NC1=S (stereo not drawn) [Cmpd 45] | 88.2% | 92.7% | 97.4% | 96.4% | – | – | inhibition at 3 µM (S. MRSA): -1.84%; inhibition at 3 µM (B. Anthracis; 3 μM): 49.2%
O=C(O)C(Cc1ccccc1)N1C(=O)/C(=C\c2ccc(-c3ccc(Cl)c(Cl)c3)o2)NC1=S (stereo not drawn) [Cmpd 46] | – | – | – | – | >250 µM | 15.6 µM (≈ 7.6 µg/mL) | S. MRSA 3 μM (growth inhibition) (S. MRSA): −17.39; S. MRSA 10 μM (growth inhibition) (S. MRSA; 10 μM): 93.71; S. MRSA 30 μM (growth inhibition) (S. MRSA; 30 μM): 103.37; B. Anthracis 3 μM (growth inhibition) (B. Anthracis; 3 μM): 108.4; B. Anthracis 10 μM (growth inhibition) (B. Anthracis; 10 μM): 108.46; B. Anthracis 30 μM (growth inhibition) (B. Anthracis; 30 μM): 106.96
O=C(O)[C@@H](Cc1ccccc1)N1C(=O)/C(=C\c2ccc(-c3ccc(Cl)c(Cl)c3)o2)NC1=S [Cmpd 47] | 84.4% | 103% | 107% | 107% | 250 µM (≈ 122 µg/mL) | 7.8 µM (≈ 3.8 µg/mL) | inhibition at 3 µM (S. MRSA): -13.8%; inhibition at 3 µM (B. Anthracis; 3 μM): 9.41%
CC(=O)C(Cc1ccccc1)N1C(=O)/C(=C2/C(=O)Nc3cc(Cl)c(Cl)cc32)NC1=S (stereo not drawn) [Cmpd 49] | -20.3% | -26.3% | -7.49% | 97.2% | – | – | inhibition at 3 µM (S. MRSA): -7.73%; inhibition at 3 µM (B. Anthracis; 3 μM): 1.73%
O=C(O)C(Cc1ccccc1)N1C(=O)/C(=C\c2ccc(-c3ccc(Cl)c(Cl)c3)s2)NC1=S (stereo not drawn) [Cmpd 50] | 14.3% | 35.6% | 108% | 94.2% | – | – | inhibition at 3 µM (S. MRSA): -14.6%; inhibition at 3 µM (B. Anthracis; 3 μM): 1.03%
O=C(O)[C@H](Cc1ccccc1)N1C(=O)/C(=C\c2ccc(-c3cc(Cl)cc(Cl)c3)o2)NC1=S [Cmpd 51] | -7.03% | 85.3% | -3.08% | 99.3% | – | – | inhibition at 3 µM (S. MRSA): -0.61%; inhibition at 3 µM (B. Anthracis; 3 μM): -0.16%
CNC(=O)C(Cc1ccccc1)N1C(=O)/C(=C\c2ccc(-c3ccc(Cl)c(Cl)c3)o2)NC1=S (stereo not drawn) [Cmpd 56] | – | – | – | – | >250 µM | >250 µM | –
O=C(O)C(Cc1ccccc1)N1C(=O)CNC1=S (stereo not drawn) [Cmpd 61] | – | – | – | – | >250 µM | >250 µM | –
O=C(O)C(Cc1ccccc1)N1C(=O)/C(=C\c2ccco2)NC1=S (stereo not drawn) [Cmpd 62] | – | – | – | – | >250 µM | >250 µM | –
O=C1NC(=S)N/C1=C/c1ccc(-c2ccc(Cl)c(Cl)c2)o1 [Cmpd 63] | – | – | – | – | >250 µM | 62.5 µM (≈ 21.2 µg/mL) | –
O=C([O-])C(Cc1ccccc1)N1C(=O)/C(=C\c2ccc(-c3ccc(Cl)c(Cl)c3)o2)NC1=S.[Na+] (stereo not drawn) [Cmpd 66] | – | – | – | – | >250 µM | 7.8 µM | S. MRSA 3 μM (growth inhibition) (S. MRSA): 0.9
O=C(O)C(Cc1ccccc1)N1C(=O)/C(=C\c2ccc(-c3ccc(Cl)nc3Cl)o2)NC1=S (stereo not drawn) [Cmpd 73] | – | – | – | – | >250 µM | 125 µM (≈ 61 µg/mL) | –

SMILES | inhibition at 10 µM (S. MRSA; 10 μM) | inhibition at 30 µM (S. MRSA; 30 μM) | inhibition at 10 µM (B. Anthracis; 10 μM) | inhibition at 30 µM (B. Anthracis; 30 μM) | MIC, 25% Serum [1] | MIC, No Serum [1] | other results
O=C(O)c1cc(-c2ccc(/C=C3/NC(=S)N(C(Cc4ccccc4)C(=O)O)C3=O)o2)ccc1Cl (stereo not drawn) [Cmpd 74] | – | – | – | – | >250 µM | >250 µM | –
O=C(O)C(Cc1ccccc1)N1C(=O)/C(=C\c2ccc(-c3ccc(Cl)c(Cl)c3)[nH]2)NC1=S (stereo not drawn) [Cmpd 75] | – | – | – | – | >250 µM | 62.5 µM (≈ 30.4 µg/mL) | –
O=C(O)C(Cc1ccccc1)N1C(=O)/C(=C\c2ccc(-c3ccc(Cl)c(Cl)n3)o2)NC1=S (stereo not drawn) [Cmpd 76] | – | – | – | – | >250 µM | 62.5 µM (≈ 30.5 µg/mL) | –
O=C(O)c1cccc(N2C(=O)/C(=C\c3ccc(-c4ccc(Cl)c(Cl)c4)o3)NC2=S)c1 [Cmpd 77] | – | – | – | – | >250 µM | 31.3 µM (≈ 14.4 µg/mL) | –
O=C(O)C(Cc1ccccc1)N1C(=O)/C(=C\c2ncc(-c3ccc(Cl)c(Cl)c3)o2)NC1=S (stereo not drawn) [Cmpd 78] | – | – | – | – | >250 µM | 250 µM (≈ 122 µg/mL) | –
O=C(O)CN1C(=O)N/C(=C/c2ccc(-c3ccc(Cl)c(Cl)c3)o2)C1=O [Cmpd 79] | – | – | – | – | >250 µM | >250 µM | –
O=C(O)C(Cc1ccccc1)N1C(=O)/C(=C\c2ccc(-c3cc(Cl)nc(Cl)c3)o2)NC1=S (stereo not drawn) [Cmpd 80] | – | – | – | – | >250 µM | 62.5 µM (≈ 30.5 µg/mL) | –
CNC(=O)c1ccc(-c2ccc(/C=C3/NC(=S)N(C(Cc4ccccc4)C(=O)O)C3=O)o2)cc1 (stereo not drawn) [Cmpd 81] | – | – | – | – | >250 µM | >250 µM | –
CNC(=O)c1ccc(Cl)c(-c2ccc(/C=C3/NC(=S)N(C(Cc4ccccc4)C(=O)O)C3=O)o2)c1Cl (stereo not drawn) [Cmpd 82] | – | – | – | – | >250 µM | >250 µM | –
CNC(=O)c1cc(-c2ccc(/C=C3/NC(=S)N(C(Cc4ccccc4)C(=O)O)C3=O)o2)ccc1Cl (stereo not drawn) [Cmpd 83] | – | – | – | – | >250 µM | >250 µM | –
O=C(O)C(Cc1ccccc1)N1C(=O)/C(=C\c2oc(Cl)nc2Cl)NC1=S (stereo not drawn) [Cmpd 84] | – | – | – | – | >250 µM | >250 µM | –
CNC(=O)c1ccc(-c2ccc(/C=C3/NC(=S)N(C(Cc4ccccc4)C(=O)O)C3=O)o2)cc1Cl (stereo not drawn) [Cmpd 85] | – | – | – | – | >250 µM | >250 µM | –
C=CCN1C(=O)/C(=C\c2ccc(-c3ccc(Cl)c(Cl)c3)o2)NC1=S [Cmpd 86] | – | – | – | – | >250 µM | >250 µM | –
CC(C)[C@H](C(=O)O)N1C(=O)C[C@H](NC(=O)c2cocc2-c2ccc(Cl)cc2)C1=O [Cmpd 87] | – | – | – | – | >250 µM | >250 µM | –
C=CCN1C(=O)/C(=C\c2cc(OCC)c(O)c(Br)c2Cl)NC1=S [Cmpd 88] | – | – | – | – | >250 µM | >250 µM | –
C=CCN1C(=O)/C(=C\c2cc(OC)c(O)c(Cl)c2Cl)NC1=S [Cmpd 89] | – | – | – | – | >250 µM | 250 µM (≈ 89.8 µg/mL) | –
COc1cc(/C=C2/NC(=S)N(C(Cc3ccccc3)C(=O)O)C2=O)c(Cl)c(Cl)c1O (stereo not drawn) [Cmpd 90] | – | – | – | – | >250 µM | >250 µM | –
O=C(O)C(Cc1ccccc1)N1C(=O)/C(=C\c2cc3cc(Br)ccc3o2)NC1=S (stereo not drawn) [Cmpd 91] | – | – | – | – | >250 µM | 125 µM (≈ 58.9 µg/mL) | –
